Results as given in patent publication US10226508B2, “Treatment of chronic ulcers” (Promore Pharma AB, priority 2013, dated 2019).
Entries after “also recorded” stand apart in the source; their conditions may differ. Like-named read-outs stand apart in the source and are kept apart here.

Columns and labels:
wound healing = conditions: topical treatment; mice treated with a corticosteroid; Ramos et al 2011; cited from earlier work
[1] = test system: acute wounds of diabetic mice; conditions: cited from earlier work
acute wounds = conditions: synthetic LL-37, repeated topical administration in acute wounds; cited from earlier work
[2] = test system: HTH VLUs (hard-to-heal venous leg ulcers); assay: Double-blind, randomised, placebo-controlled Phase I/II safety and pilot-dose response study of LL-37 in HTH VLUs; assay type: in vivo, human; conditions: for Estimated healing rate constant (cm^2/day) Mean (95% C.I.): 25 μL/cm^2 topical every third day, 4 weeks, exponential decay model, placebo 0.007
Protocol: A double-blind, randomised, placebo-controlled, Phase I/II safety and pilot-dose response study was conducted on human subjects. The first subject was enrolled in August 2012 and the last subject completed in April 2013.
Study subjects comprised either male subjects of at least 18 years of age, or post-menopausal or clinically sterile women, with VLUs or combined venous-arterial ulcers with a predominant venous component.
Target wounds with an area greater than 30 cm^2 and less than 2 cm^2 were excluded initially. However, in order to increase the inclusion rate and decrease the total study time, criteria were amended after randomisation of 21 subjects, to exclude areas greater than 40 cm^2 and less than 1 cm^2. If an eligible subject had more than one wound satisfying the entry criteria, the investigator identified the wound with the most appropriate size, shape and localisation as target wound. Only one wound per subject was treated in the study.
During the 3-week run-in period, subjects received, every third day (±1) and not more than two times per week, six applications (in total) of a placebo preparation (see below) in combination with standard compression bandaging (as defined by the Swedish MPA), comprising elastic bandaging and appropriate dressing to control wound exudation.
If the ulcerative area decrease was greater than between 7% and 13% (depending on size) per week relative to the start of the run-in period, the ulcer was not defined as HTH for the purposes of this study. In such cases, subjects were excluded from the study and the outcome was recorded as screening failure.
After a run-in period, 34 eligible subjects underwent baseline assessments before randomisation to receive active treatment (one of three treatment strengths) or placebo.
Following the above run-in period, a 4-week treatment period was initiated, including 8 visits, an end-of-treatment visit 3 days (±1 day) after the last treatment, and a follow-up visit after an additional 4 weeks (±1 to 7 days).
Subjects were randomised into four treatment groups to receive LL-37 (one of three alternative strengths), or placebo.
Wound bed preparation prior to treatment included debridement of non-viable tissue, treatment of clinical infection and selection of the most appropriate dressing (see below). The wound was cleaned using tap water, gently dried with a gauze pad and, if necessary, curettage was applied prior to application of the trial product or placebo.
0.7 mL of a sterile concentrate of LL-37 in water at concentrations of 2.5, 8 or 16 mg of LL-37 per mL was provided in sealed glass vials (APL, Umeå, Sweden), which were stored prior to the trial at between 2 and 8° C. Immediately before application to the wound, this was diluted with […] of a viscous diluent solution comprising 13.1% (w/w) of polyvinyl alcohol in acetate buffered saline (APL AB) to give final concentrations of either 0.5, 1.6 or 3.2 mg/mL, respectively. Placebo comprised exactly the same solution, but without LL-37 present.
The diluted viscous liquid solution of active treatment or placebo was applied topically at an amount of 25 μL/cm^2 with a 1 mL graded syringe at the centre of the cleansed and dried ulcer, and distributed evenly over the entire ulcer area using the rounded head of the syringe plunger that had been used in mixing the study drug.
After a 5-minute wait (to prevent LL-37 or placebo from being absorbed by the dressing material), the above procedure was followed by application of a dressing and a compression bandage.
The above procedure was repeated every third day (±1) over a 4 week treatment period, not more than two times per week, representing a total of eight applications.
The study assessed the rate of wound healing, pain at wound site both at the time of dressing and over the previous 24 hours using Visual Analogue Scale (VAS). […]

angiogenesis = conditions: synthetic LL-37, subcutaneous injection; Koczulla et al 2003; cited from earlier work

Substance: LL-37
- effect on wound healing (wound healing): stimulated wound healing
- effect in acute wounds of diabetic mice ([1]; one study, Carretero et al 2008): beneficial effect
- effect in acute wounds of diabetic mice ([1]; other studies, Steinstraesser et al 2012): failed to show an effect
- effect on inflammatory cells (acute wounds): attracts inflammatory cells to the surrounding tissue
- wound healing response (conclusion) ([2]; LL-37 0.5 mg/mL (13 μg per cm^2 of wound area) every third day): marked and significant improvement in wound healing
- Estimated healing rate constant (cm^2/day) Mean (95% C.I.) ([2]; LL-37 0.5 mg/mL): 0.039 cm^2/day
- broken stick analysis: reduction in wound area after randomisation versus run-in ([2]; LL-37 0.5 mg/mL, p<0.001, FIG. 1): statistically significant improved healing
- wound healing response (conclusion) ([2]; LL-37 1.6 mg/mL (40 μg per cm^2 of wound area) every third day): marked and significant improvement in wound healing
- Estimated healing rate constant (cm^2/day) Mean (95% C.I.) ([2]; LL-37 1.6 mg/mL): 0.019 cm^2/day
- mean reduction in wound area ([2]; LL-37 1.6 mg/mL, from randomization to the end of the study): 5.29 cm^2
- broken stick analysis: reduction in wound area after randomisation versus run-in ([2]; LL-37 1.6 mg/mL, p=0.011, FIG. 1): statistically significant improved healing
- clinical benefit in chronic ulcers ([2]; LL-37 3.2 mg/mL, 80 μg/cm^2 every third day (26.7 μg/cm^2 for each day)): do not effectively treat chronic ulcers; also recorded: no clinical benefit
- Estimated healing rate constant (cm^2/day) Mean (95% C.I.) ([2]; LL-37 3.2 mg/mL): 0.004 cm^2/day
- Wound Area (cm^2), Mean ± S.D ([2]; Visit 1 (Screening), before treatment, LL-37 0.5 mg/mL group (N = 8)): 4.59 ± 2.024 cm^2
- Wound Area (cm^2), Mean ± S.D ([2]; Visit 1 (Screening), before treatment, LL-37 1.6 mg/mL group (N = 9)): 7.84 ± 4.789 cm^2
- Wound Area (cm^2), Mean ± S.D ([2]; Visit 1 (Screening), before treatment, LL-37 3.2 mg/mL group (N = 8)): 8.41 ± 6.450 cm^2
- Wound Area (cm^2), Mean ± S.D ([2]; Visit 3 (placebo run-in), LL-37 0.5 mg/mL group (N = 8)): 4.39 ± 1.995 cm^2
- Wound Area (cm^2), Mean ± S.D ([2]; Visit 3 (placebo run-in), LL-37 1.6 mg/mL group (N = 9)): 8.14 ± 4.997 cm^2
- Wound Area (cm^2), Mean ± S.D ([2]; Visit 3 (placebo run-in), LL-37 3.2 mg/mL group (N = 8)): 7.83 ± 6.163 cm^2
- Wound Area (cm^2), Mean ± S.D ([2]; Visit 6 (Randomisation), baseline, LL-37 0.5 mg/mL group (N = 8)): 5.11 ± 1.732 cm^2
- Wound Area (cm^2), Mean ± S.D ([2]; Visit 6 (Randomisation), baseline, LL-37 1.6 mg/mL group (N = 9)): 7.69 ± 4.072 cm^2
- Wound Area (cm^2), Mean ± S.D ([2]; Visit 6 (Randomisation), baseline, LL-37 3.2 mg/mL group (N = 8)): 8.50 ± 6.919 cm^2
- Wound Area (cm^2), Mean ± S.D ([2]; Visit 8, LL-37 0.5 mg/mL (N = 8)): 3.89 ± 1.329 cm^2
- Wound Area (cm^2), Mean ± S.D ([2]; Visit 8, LL-37 1.6 mg/mL (N = 9)): 5.83 ± 2.156 cm^2
- Wound Area (cm^2), Mean ± S.D ([2]; Visit 8, LL-37 3.2 mg/mL (N = 8)): 7.95 ± 6.270 cm^2
- Wound Area (cm^2), Mean ± S.D ([2]; Visit 10, LL-37 0.5 mg/mL (N = 8)): 3.18 ± 1.549 cm^2
- Wound Area (cm^2), Mean ± S.D ([2]; Visit 10, LL-37 1.6 mg/mL (N = 9)): 5.34 ± 1.943 cm^2
- Wound Area (cm^2), Mean ± S.D ([2]; Visit 10, LL-37 3.2 mg/mL (N = 8)): 7.03 ± 5.063 cm^2
- Wound Area (cm^2), Mean ± S.D ([2]; Visit 12, LL-37 0.5 mg/mL (N = 8)): 2.26 ± 1.061 cm^2
- Wound Area (cm^2), Mean ± S.D ([2]; Visit 12, LL-37 1.6 mg/mL (N = 9)): 4.59 ± 2.266 cm^2
- Wound Area (cm^2), Mean ± S.D ([2]; Visit 12, LL-37 3.2 mg/mL (N = 8)): 5.93 ± 5.317 cm^2
- Wound Area (cm^2), Mean ± S.D ([2]; Visit 14, LL-37 0.5 mg/mL (N = 8)): 1.93 ± 1.262 cm^2
- Wound Area (cm^2), Mean ± S.D ([2]; Visit 14, LL-37 1.6 mg/mL (N = 9)): 3.86 ± 3.029 cm^2
- Wound Area (cm^2), Mean ± S.D ([2]; Visit 14, LL-37 3.2 mg/mL (N = 8)): 5.89 ± 4.784 cm^2
- Wound Area (cm^2), Mean ± S.D ([2]; Visit 15 (End of Treatment), LL-37 0.5 mg/mL (N = 8)): 1.98 ± 1.276 cm^2
- Wound Area (cm^2), Mean ± S.D ([2]; Visit 15 (End of Treatment), LL-37 1.6 mg/mL (N = 9)): 3.34 ± 3.166 cm^2
- Wound Area (cm^2), Mean ± S.D ([2]; Visit 15 (End of Treatment), LL-37 3.2 mg/mL (N = 8)): 5.85 ± 4.648 cm^2
- Wound Area (cm^2), Mean ± S.D ([2]; Visit 16 (End of Study, follow-up approx. 4 weeks after last treatment), LL-37 0.5 mg/mL (N = 8)): 1.33 ± 1.209 cm^2
- Wound Area (cm^2), Mean ± S.D ([2]; Visit 16 (End of Study, follow-up approx. 4 weeks after last treatment), LL-37 1.6 mg/mL (N = 9)): 2.40 ± 3.269 cm^2
- Wound Area (cm^2), Mean ± S.D ([2]; Visit 16 (End of Study, follow-up approx. 4 weeks after last treatment), LL-37 3.2 mg/mL (N = 8)): 6.19 ± 4.770 cm^2
- difference of estimated healing rate versus the placebo group ([2]; highest dose, LL-37 3.2 mg/mL): no statistically significant difference
- broken stick analysis: post-randomisation rate versus run-in ([2]; highest dose, LL-37 3.2 mg/mL, FIG. 1): No significant difference
- difference of healing rate constant (exponential decay model) versus the placebo group ([2]; intermediate dose, LL-37 1.6 mg/mL, p=0.088): 3 fold
- difference of healing rate constant (exponential decay model) versus the placebo group ([2]; lowest dose, LL-37 0.5 mg/mL, p=0.003): 6 fold
- effect on angiogenesis (angiogenesis): stimulates angiogenesis
